According to patent US10202390B2, “Heteroaryl substituted aminopyridine compounds” (BRISTOL-MYERS SQUIBB COMPANY, priority 2015, dated 2019):

What was measured:
IRAK4 = IRAK4 (Homo sapiens (Human), UniProt Q9NWZ3); experiment: IRAK4 Inhibition Assay; type: biochemical; settings: ATP 500 μM; IRAK4 0.6 nM; 60 min room temperature
Method: The assays were performed in U-bottom 384-well plates. The final assay volume was 30 μL prepared from 15 μL additions of enzyme and substrates (fluoresceinated peptide and ATP) and test compounds in assay buffer (20 mM HEPES pH 7.2, 10 mM MgCl2, 0.015% Brij 35 and 4 mM DTT). The reaction was initiated by the combination of IRAK4 with substrates and test compounds. The reaction mixture was incubated at room temperature for 60 min. and terminated by adding 45 μL of 35 mM EDTA to each sample. The reaction mixture was analyzed on the Caliper LABCHIP® 3000 (Caliper, Hopkinton, Mass.) by electrophoretic separation of the fluorescent substrate and phosphorylated product. Inhibition data were calculated by comparison to no enzyme control reactions for 100% inhibition and vehicle-only reactions for 0% inhibition. The final concentrations of reagents in the assays are ATP, 500 μM; FL-IPTSPITTTYFFFKKK peptide 1.5 μM; IRAK4, 0.6 nM; and DMSO, 1.6%.

[1] = Caco-2 Permeability Assay; type: in vitro ADME; settings: human, test compound 3 μM, 2 hours at 37° C., direction not given
Method: Caco-2 Permeability Assay Protocol
Thirteen to 27 days prior to assay, Caco-2 cells were seeded onto collagen-coated polycarbonate filter membranes in 24-well transwell plates at a density of 1.45×10^5 cells/cm^2, approximately 4.8×10^4 cells per well. The cells were grown in a culture medium consisting of DMEM supplemented with 10% fetal bovine serum, 10 mM HEPES, 1% nonessential amino acids, 2 mM L-glutamine, 100 U/mL penicillin-G, and 100 μg/mL streptomycin. The culture medium was replaced every 3 days and the cells were maintained at 37° C. in a 95% relative humidity and 5% CO2 atmosphere. The cells were evaluated for tight junction formation just prior to assay. The test compound was solubilized to 10 mM in 100% DMSO and diluted to 3 μM in assay buffer. Permeability studies were initiated by adding 200 μL assay buffer plus/minus compound to the apical transwell compartment and 600 μL assay buffer plus/minus compound to the basolateral compartment of the 24-well transwell low-binding cluster plate. For apical-to-basolateral (A to B) permeability (absorptive direction), buffer containing compound was placed in the apical compartment (donorwells), while buffer alone was placed in the corresponding basolateral compartments (receiverwells). For basolateral-to-apical (B to A) permeability (secretive direction), buffer containing compound was placed in the basolateral compartment (donor wells), while buffer alone was placed in the corresponding apical compartments (receiver wells). Transwells were then incubated for 2 hours at 37° C. in a 95% relative humidity and 5% CO2 atmosphere with gentle agitation. Following incubation, 100 μL was removed from each apical and basolateral compartment and transferred to 96-well low binding plates that had been previously loaded with 100 μL/well of acetonitrile containing 250 nM propranolol, 250 nM diclofenac, and 500 nM tolbutamide as internal standards. The samples were subsequently analyzed by LC-MS/MS to determine concentrations of compound.

Human whole blood = experiment: IRAK4 Whole Blood Assay (TLR2 agonist lipoteichoic acid induced IL-6); type: cell-based; settings: 10 μg/mL lipoteichoic acid (TLR2 agonist), 5 hours, IL-6 levels
Method: Human whole blood containing the anti-coagulant ACD-A was plated in 384-well plate (25 μL/well) and incubated with compounds for 60 minutes at 37° C. in a 5% CO2 incubator. The blood was stimulated with a TLR2 agonist, 10 μg/mL final concentration of lipoteichoic acid (Invivogen, San Diego, Calif.) in 25 μL RPMI (Gibco) for 5 hours in a 5% CO2 incubator. At the end of the incubation, plates were centrifuged at 2300 rpm for 5 minutes. Supernatants were harvested and analyzed for IL-6 levels by Flow Cytometry beads assay (BD Biosciences, San Jose, Calif.).

Chain of IRAK4 (Q9NWZ3 whole entry): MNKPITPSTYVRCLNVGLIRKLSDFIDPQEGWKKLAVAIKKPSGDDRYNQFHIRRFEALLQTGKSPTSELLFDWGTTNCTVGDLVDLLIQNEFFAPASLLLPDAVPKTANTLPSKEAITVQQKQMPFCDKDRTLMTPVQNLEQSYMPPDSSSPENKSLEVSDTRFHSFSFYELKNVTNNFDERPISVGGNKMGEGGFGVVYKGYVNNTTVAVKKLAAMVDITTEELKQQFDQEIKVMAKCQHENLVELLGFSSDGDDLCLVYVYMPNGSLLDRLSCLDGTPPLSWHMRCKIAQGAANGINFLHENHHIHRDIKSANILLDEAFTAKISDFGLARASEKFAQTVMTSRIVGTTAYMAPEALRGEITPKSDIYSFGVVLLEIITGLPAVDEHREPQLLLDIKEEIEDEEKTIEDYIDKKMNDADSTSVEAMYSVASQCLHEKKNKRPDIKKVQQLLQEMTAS

IC50 (IRAK4)	Papp at 2 h, 3 μM [1]	EC50 (Human whole blood)	SMILES
6 nM	22.5 ×10⁻⁶ cm/s	1780 nM	CCCc1cn(-c2cnc(-c3cnc4cc(C#N)cnn34)cc2NC(C)C)nn1 [Example 15, 3-(4-(isopropylamino)-5-(4-propyl-1H-1,2,3-triazol-1-yl)pyridin-2-yl)imidazo[1,2-b]pyridazine-7-carbonitrile]
2 nM	22.5 ×10⁻⁶ cm/s	180 nM	CCCn1cc(-c2cnc(-c3cnc4cc(C#N)cnn34)cc2NC2CC2)nn1 [Example 18, 3-(4-(cyclopropylamino)-5-(1-propyl-1H-1,2,3-triazol-4-yl)pyridin-2-yl)imidazo[1,2-b]pyridazine-7-carbonitrile]
4 nM	29.5 ×10⁻⁶ cm/s	780 nM	CC(C)Nc1cc(-c2cnc3cc(C#N)cnn23)ncc1-n1cc(CCC(C)(C)O)nn1 [Example 22, 3-(5-(4-(3-hydroxy-3-methylbutyl)-1H-1,2,3-triazol-1-yl)-4-(isopropylamino)pyridin-2-yl)imidazo[1,2-b]pyridazine-7-carbonitrile]
5 nM	13.4 ×10⁻⁶ cm/s	250 nM	CC(C)(O)CCc1cn(-c2cnc(-c3cnn4cc(C#N)cnc34)cc2N[C@H]2CC[C@H](F)C2)nn1 [Example 25, 3-(4-(((1S,3 S)-3-fluorocyclopentyl)amino)-5-(4-(3-hydroxy-3-methylbutyl)-1H-1,2,3-triazol-1-yl)pyridin-2-yl)pyrazolo[1,5-a]pyrimidine-6-carbonitrile]
3 nM	13.6 ×10⁻⁶ cm/s	620 nM	CC(C)Nc1cc(-c2cnc3cc(C#N)cnn23)ncc1-c1cnn(CCC(C)(C)O)c1 [Example 27, 3-(5-(1-(3-hydroxy-3-methylbutyl)-1H-pyrazol-4-yl)-4-(isopropylamino)pyridin-2-yl) imidazo[1,2-b]pyridazine-7-carbonitrile]
